The values that follow come from patent EP1289977B1, “TRITERPENOID DERIVATIVES AND THEIR USE AS ANTIPROLIFERATIVE AGENTS” (Univerzita palackeho V Olomouci, priority 2000, dated 2001).

Molecules are shown by their SMILES.

What all share (type): cell-based
One assay concerns BT549. In words: MTT cytotoxicity assay, BT549. The note with it: BT-549, BT549, human breast cancer, p53mut/mut, 72 hours, read-out: TCS50. The text has this: (§1) One of the parameters used as the basis for colorimetric assays is the metabolic activity of viable cells. For example, a microtiter assay which uses the tetrazolium salt MTT is now widely used to quantitate cell proliferation and cytotoxicity [Hajduch M, Mihal V, Minarik J, Fáber E, ? afárová M, Weigl E, Antálek P.: Cytotechnology, 1996,19,243-245]. For instance, this assay is used in drug screening programs and in chemosensitivity testing. Because tetrazolium salts are cleaved only by metabolically active cells, these assays exclusively detect viable cells. In the case of the MTT assay, yellow soluble tetrazolium salt is reduced to a coloured water-insoluble formazan salt. After it is solubilized, the formazan formed can easily and rapidly be quantified in a conventional ELISA plate reader at 570 nm (maximum absorbancy). The quantity of reduced formazan corresponds to the number of vital cells in the culture. […]
(§2) The cell suspensions that were prepared and diluted according to the particular cell type and the expected target cell density (2.500-30.000 cells per well based on cell growth characteristics) were added by pipette (80 µl) into 96/well microtiter plates. […] Usually, test compounds were evaluated at six 4-fold dilutions. […] The optical density (OD) was measured at 540nm with the Labsystem iEMS Reader MF (UK). […]
A general note: Formazan colour is commonly taken as a measure of viable cells.

The next assay relates to LNCaP. In words: MTT cytotoxicity assay, LNCaP. To be noted: human prostate cancer, androgen dependent, 72 hours, read-out: TCS50.
Source text: as §1, §2

The next assay deals with B16. In words: MTT cytotoxicity assay, B16. The note with it: B16, mouse melanoma, 72 hours, read-out: TCS50.
Source text: as §1, §2

A further assay concerns K562-FLUD. In words: MTT cytotoxicity assay, K562-FLUD. To be noted: human chronic myelogenous leukemia, fludarabin resistant, 72 hours, read-out: TCS50.
Source text: as §1, §2

For the next assay, the system named is K562. In words: MTT cytotoxicity assay, K562. To be noted: K562, human chronic myelogenous leukemia, 72 hours, read-out: TCS50.
Source text: as §1, §2

The next assay concerns MDA-MB-238. In words: MTT cytotoxicity assay, MDA-MB-238. The note with it: MDA-MB-238, human breast cancer, estrogen independent, p53mut/mut, 72 hours, read-out: TCS50.
Source text: as §1, §2

Another assay concerns Saos2. In words: MTT cytotoxicity assay, Saos2. To be noted: SAOS-2, Saos2, human osteosarcoma, p53-/-, Rb-/-, 72 hours, read-out: TCS50.
Source text: as §1, §2

The next assay deals with HT-29. In words: MTT cytotoxicity assay, HT-29. The note with it: HT-29, human colon cancer, 72 hours, read-out: TCS50.
Source text: as §1, §2

The subject of the next assay is A549. In words: MTT cytotoxicity assay, A549. The note with it: A549, human lung adenocarcinoma, 72 hours, read-out: TCS50.
Source text: as §1, §2

The test system of another assay is DU145. In words: MTT cytotoxicity assay, DU145. To be noted: DU-145, DU145, human prostate cancer, androgen independent, Rb-/-, 72 hours, read-out: TCS50.
Source text: as §1, §2

A further assay has as its system K562-CdA. In words: MTT cytotoxicity assay, K562-CdA. The note with it: human chronic myelogenous leukemia, cladrubin resistant, 72 hours, read-out: TCS50.
Source text: as §1, §2

The subject of the next assay is Caco-2. In words: MTT cytotoxicity assay, Caco-2. The note with it: Caco-2, human colon cancer, 72 hours, read-out: TCS50.
Source text: as §1, §2

For another assay, the system named is U20S. In words: MTT cytotoxicity assay, U20S. To be noted: human osteosarcoma, p53+/-, Rb +/-, 72 hours, read-out: TCS50.
Source text: as §1, §2

In the next assay the test system is CEM-VCR 3/D5. In words: MTT cytotoxicity assay, CEM-VCR 3/D5. To be noted: CEM-VCR 3/D5, human T-lymphoblastic leukemia, vincristin resistant, 72 hours, read-out: TCS50.
Source text: as §1, §2

A further assay has as its system CEM-DNR bulk. In words: MTT cytotoxicity assay, CEM-DNR bulk. To be noted: human T-lymphoblastic leukemia, daunorubicin resistant, 72 hours, read-out: TCS50.
Source text: as §1, §2

The subject of a further assay is HepG2. In words: MTT cytotoxicity assay, HepG2. The note with it: HepG2, human hepatocellular carcinoma, 72 hours, read-out: TCS50.
Source text: as §1, §2

The next assay relates to U87MG. In words: MTT cytotoxicity assay, U87MG. To be noted: U-87 MG, human glioblastoma, 72 hours, read-out: TCS50.
Source text: as §1, §2

A further assay relates to NIH3T3. In words: MTT cytotoxicity assay, NIH3T3. The note with it: NIH3T3, mouse immortalised fibroblasts (non-malignant), 72 hours, read-out: TCS50.
Source text: as §1, §2

For a further assay, the system named is K562-ARA-C. In words: MTT cytotoxicity assay, K562-ARA-C. To be noted: human chronic myelogenous leukemia, cytarabin resistant, 72 hours, read-out: TCS50.
Source text: as §1, §2

The test system of the next assay is SW620. In words: MTT cytotoxicity assay, SW620. To be noted: SW-620, SW620, human colon cancer, metastasis, 72 hours, read-out: TCS50.
Source text: as §1, §2

For a further assay, the system named is CEM-VCR bulk. In words: MTT cytotoxicity assay, CEM-VCR bulk. To be noted: human T-lymphoblastic leukemia, vincristin resistant, 72 hours, read-out: TCS50.
Source text: as §1, §2

The test system of a further assay is CEM. In words: MTT cytotoxicity screening assay, CEM. The note with it: CCRF-CEM, human T-lymphoblastic leukemia, 72 hours, read-out: TCS50. From the text:
One of the parameters used as the basis for colorimetric assays is the metabolic activity of viable cells. For example, a microtiter assay which uses the tetrazolium salt MTT is now widely used to quantitate cell proliferation and cytotoxicity [Hajduch M, Mihal V, Minarik J, Fáber E, ? afárová M, Weigl E, Antálek P.: Cytotechnology, 1996,19,243-245]. For instance, this assay is used in drug screening programs and in chemosensitivity testing. Because tetrazolium salts are cleaved only by metabolically active cells, these assays exclusively detect viable cells. In the case of the MTT assay, yellow soluble tetrazolium salt is reduced to a coloured water-insoluble formazan salt. After it is solubilized, the formazan formed can easily and rapidly be quantified in a conventional ELISA plate reader at 570 nm (maximum absorbancy). The quantity of reduced formazan corresponds to the number of vital cells in the culture.
Human T-lymphoblastic leukaemia cell line CEM was used for routine screening of these compounds. […] The cells were maintained in Nunc/Coming 80 cm^2 plastic tissue culture flasks and cultured in cell culture medium (DMEM with 5 g/l glucose, 2mM glutamine, 100 U/ml penicillin, 100 µg/ml streptomycin, 10% foetal calf serum and sodium bicarbonate). Individual compounds were dissolved in 10% dimethylsulfoxide/saline, pH 8.0.
The cell suspensions that were prepared and diluted according to the particular cell type and the expected target cell density (2.500-30.000 cells per well based on cell growth characteristics) were added by pipette (80 µl) into 96/well microtiter plates. Inoculates were allowed a pre-incubation period of 24 hours at 37°C and 5% CO2 for stabilisation. Four-fold dilutions of the intended test concentration were added at time zero in 20 µl aliquots to the microtiter plate wells. Usually, test compounds were evaluated at six 4-fold dilutions. In routine testing, the highest well concentration was 250 µM, but it may differ, depending on the agent. All drug concentrations were examined in duplicate. Incubations of cells with the test compounds lasted for 72 hours at 37°C, in 5% CO2 atmosphere and 100% humidity. At the end of the incubation period, the cells were assayed by using the MTT assay. Ten microliters of the MTT stock solution were pipetted into each well and incubated further for 1-4 hours. […] The optical density (OD) was measured at 540nm with the Labsystem iEMS Reader MF (UK). The tumour cell survival (TCS) was calculated using the following equitation: TCS= (ODdrug exposed well /mean ODcontrol wells) x 100%. The TCS50 value, the drug concentration lethal to 50% of the tumour cells, was calculated from the obtained dose response curves. […]

Another assay has as its system B16F. In words: MTT cytotoxicity assay, B16F. The note with it: mouse melanoma, metastatic, 72 hours, read-out: TCS50.
Source text: as §1, §2

A further assay deals with MEL-3. In words: MTT cytotoxicity assay, MEL-3. To be noted: MEL-3, human melanoma, 72 hours, read-out: TCS50.
Source text: as §1, §2

A further assay concerns MCF-7. In words: MTT cytotoxicity assay, MCF-7. The note with it: MCF7, MCF-7, human breast cancer, estrogen dependent, p53+/+, Rb +/+, 72 hours, read-out: TCS50.
Source text: as §1, §2

The next assay has as its system CEM-DNR 1/C2. In words: MTT cytotoxicity assay, CEM-DNR 1/C2. To be noted: CEM-DNR 1/C2, human T-lymphoblastic leukemia, daunorubicin resistant, 72 hours, read-out: TCS50.
Source text: as §1, §2

For a further assay, the system named is OVCAR-3. In words: MTT cytotoxicity assay, OVCAR-3. To be noted: OVCAR-3, human ovarian cancer, 72 hours, read-out: TCS50.
Source text: as §1, §2

Another assay concerns human normal lymphocytes. In words: MTT cytotoxicity assay, normal lymphocytes. To be noted: Lymphocyte, human normal lymphocytes (non-malignant), 72 hours, read-out: TCS50.
Source text: as §1, §2

A further assay deals with CEM-VCR 1/F3. In words: MTT cytotoxicity assay, CEM-VCR 1/F3. To be noted: CEM-VCR 1/F3, human T-lymphoblastic leukemia, vincristin resistant, 72 hours, read-out: TCS50.
Source text: as §1, §2

The next assay relates to K562-GEM. In words: MTT cytotoxicity assay, K562-GEM. To be noted: human chronic myelogenous leukemia, gemcitabin resistant, 72 hours, read-out: TCS50.
Source text: as §1, §2

Turning to `C=C(C)[C@@H]1CC[C@]2(C(=O)O)CC[C@]3(C)[C@H](CC[C@@H]4[C@@]5(C)CC[C@H](O)C(C)(C)[C@@H]5CC[C@]43C)[C@@H]12` [Betulinic Acid, betulinic acid, reference compound], the IC50 with BT549 came out at 250 µM; in the assay on LNCaP, 244 µM; in the assay on B16 it was 36 µM; in the assay with K562-FLUD it was 250 µM; with K562, 250 µM; in the assay with MDA-MB-238 it was 195 µM. The IC50 stood at 250 µM with Saos2; 250 µM with HT-29; 236 µM with A549; 241 µM in the assay with DU145; 250 µM with K562-CdA; 20 µM with Caco-2. Further, the IC50 was 250 µM in the assay on U20S; 24 µM in the assay with CEM-VCR 3/D5; 250 µM with CEM-DNR bulk; 3.6 µM in the assay with HepG2; 250 µM in the assay on U87MG; 250 µM with NIH3T3. Also, the IC50 was 250 µM in the assay with K562-ARA-C; 250 µM with SW620; 69 µM in the assay with CEM-VCR bulk; 250 µM with CEM; 4.6 µM in the assay with B16F; 2.7 µM in the assay with MEL-3. The IC50 in the assay with MCF-7 worked out at 194 µM; with CEM-DNR 1/C2 it was 250 µM; in the assay on OVCAR-3, 164 µM; in the assay on human normal lymphocytes, 250 µM; in the assay with CEM-VCR 1/F3, 19 µM.

Take `CC1(C)CC[C@]23CC[C@]4(C)[C@H](CC[C@@H]5[C@@]6(C)CC(Br)C(=O)C(C)(C)[C@@H]6CC[C@]54C)[C@H]2[C@H]1OC3` (stereo partly drawn) [III.3, 2-brom-3-oxo-19β,28β-epoxy-18α-oleanan]: the IC50 in the assay with BT549 was found to be 2 µM; with LNCaP, 1.1 µM; in the assay on B16, 2.1 µM; in the assay on K562-FLUD it was 0.4 µM; in the assay with K562 it was 0.2 µM; in the assay with MDA-MB-238, 1.4 µM. Moreover, the IC50 in the assay with Saos2 was 1.8 µM; in the assay with HT-29, 1.6 µM; with A549, 1 µM; with DU145, 0.8 µM; in the assay with K562-CdA, 0.3 µM; in the assay with K562-GEM it was 0.9 µM. The IC50 is 3 µM with Caco-2; 1.5 µM in the assay on U20S; 2.9 µM in the assay with CEM-VCR 3/D5; 1.1 µM with CEM-DNR bulk; 1.7 µM in the assay on HepG2; 5.1 µM with U87MG. Further, the IC50 in the assay with NIH3T3 is 7.2 µM; with K562-ARA-C, 0.6 µM; in the assay on SW620, 1.2 µM; in the assay on CEM-VCR bulk, 2.5 µM; in the assay on CEM, 1 µM; in the assay with B16F, 4.7 µM. The IC50 in the assay on MEL-3 is 1.3 µM; with MCF-7, 2.3 µM; with CEM-DNR 1/C2, 0.6 µM; with OVCAR-3, 1 µM; in the assay with human normal lymphocytes it was 13 µM; with CEM-VCR 1/F3, 3.3 µM.

Take `CC1(C)CC[C@]23CC[C@]4(C)[C@H](CC[C@@H]5[C@@]6(C)CC(N=[N+]=[N-])C(=O)C(C)(C)[C@@H]6CC[C@]54C)[C@H]2[C@H]1OC3` (stereo partly drawn) [III.10, 2-azido-3-oxo-19β,28β-epoxy-18α-oleanan]: the IC50 in the assay on CEM is 13 µM.

On to `CC1(C)CC[C@]23CC[C@]4(C)[C@H](CC[C@@H]5[C@@]6(C)CC(F)(F)C(=O)C(C)(C)[C@@H]6CC[C@]54C)[C@H]2[C@H]1OC3` [III.14, 19β,28β-epoxy-2,2-difluoro-18α-oleanan-3-one], for which the IC50 in the assay on CEM was 170 µM.
